Experimental data as given in patent publication EP2687213B1, “Solid forms comprising (+)-2-[1-(3-ethoxy-4-methoxyphenyl)-2-methylsulfonylethyl]-4-acetylaminoisoindoline-1,3-dione, compositions thereof, and uses thereof” (CELGENE CORPORATION, priority 2008, dated 2009).

What was measured:
human PDE2 = human PDE2 (Homo sapiens, UniProt O00408); experiment: PDE2 enzyme assay; assay type: biochemical; conditions: from PDE inhibition data of Table 1
conscious ferret = experiment: Emesis and behavioral changes in conscious ferrets after oral dosing; assay type: in vivo; conditions: for Ataxia / Backward walking / Flattened posture / Lip licking / Mouth clawing / Panting / Retches / Salivation / Vomits: oral, (animals that responded/group)
Procedure: PDE4 inhibitors were administered orally (p.o.), at doses initially of […], but subsequently up to 30 mg/kg in order to establish whether the TI was 10 or higher, and/or at lower doses to establish the minimum dose to cause 50% inhibition of neutrophilia. Ferrets were fasted overnight but allowed free access to water. The animals were orally dosed with vehicle or PDE4 inhibitor using a 15 cm dosing needle that was passed down the back of the throat into the oesophagus. After dosing, the animals were returned to holding cages fitted with Perspex doors to allow observation, and given free access to water. After dosing, the animals were constantly observed and any emesis or behavioral changes were recorded. The animals were allowed access to food 60 to 90 minutes after p.o. dosing.
Thirty minutes after p.o. dosing with compound or vehicle control, the ferrets were placed into sealed Perspex containers and exposed to an aerosol of LPS (100 µg/ml) for 10 minutes. Aerosols of LPS were generated by a nebulizer (DeVilbiss, USA) and this was directed into the Perspex exposure chamber. Following a 10 minute exposure period, the animals were returned to the holding cages and allowed free access to water, and at a later stage, food. Observation continued for a period of at least 2.5 hours post p.o. dosing and emetic episodes and behavioral changes were recorded.
• 1. % Inhibition of LPS-induced pulmonary neutrophilia. • 2. Emetic episodes - the number of vomits and retches were counted. • 3. Behavioral changes - the following behavioral effects were noted: salivation, panting, mouth clawing, flattened posture, ataxia, arched back and backward walking. Any behavioral changes were semi-quantified by applying a severity rating (mild, moderate or severe). • 4. The TI was calculated as the highest dose found to not cause emetic episodes divided by the lowest dose found to inhibit pulmonary neutrophilia by 50% or more.
Numbers in parentheses refer to the number of animals that responded. The numbers of animals in each group range from 4 to 22.

Chain of human PDE2 (O00408 whole entry): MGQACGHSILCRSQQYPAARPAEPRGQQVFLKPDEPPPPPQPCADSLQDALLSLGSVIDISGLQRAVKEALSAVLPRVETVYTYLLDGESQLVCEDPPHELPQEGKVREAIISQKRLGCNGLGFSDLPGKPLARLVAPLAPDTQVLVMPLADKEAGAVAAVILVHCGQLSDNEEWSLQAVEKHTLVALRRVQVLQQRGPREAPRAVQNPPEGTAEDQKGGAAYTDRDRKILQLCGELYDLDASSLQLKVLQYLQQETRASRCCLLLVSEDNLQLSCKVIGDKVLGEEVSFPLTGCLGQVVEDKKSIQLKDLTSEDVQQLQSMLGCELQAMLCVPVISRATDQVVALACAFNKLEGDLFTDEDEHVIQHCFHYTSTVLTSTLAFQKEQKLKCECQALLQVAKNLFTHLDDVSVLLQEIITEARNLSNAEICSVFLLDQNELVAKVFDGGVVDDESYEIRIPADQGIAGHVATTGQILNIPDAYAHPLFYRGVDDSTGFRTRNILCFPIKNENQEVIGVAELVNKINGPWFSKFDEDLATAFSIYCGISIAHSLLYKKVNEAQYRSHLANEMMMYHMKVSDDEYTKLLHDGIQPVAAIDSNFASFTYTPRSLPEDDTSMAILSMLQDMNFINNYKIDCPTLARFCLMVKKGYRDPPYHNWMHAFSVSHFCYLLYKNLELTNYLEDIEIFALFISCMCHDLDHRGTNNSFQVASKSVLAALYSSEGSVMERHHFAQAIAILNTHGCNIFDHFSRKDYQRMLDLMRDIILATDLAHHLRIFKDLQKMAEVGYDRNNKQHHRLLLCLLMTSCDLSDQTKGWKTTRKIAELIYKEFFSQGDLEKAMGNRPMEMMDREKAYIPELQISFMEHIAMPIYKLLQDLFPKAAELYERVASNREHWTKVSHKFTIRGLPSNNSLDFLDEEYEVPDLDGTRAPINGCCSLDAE

For CCOc1cc(C(CS(C)(=O)=O)N2C(=O)c3cccc(NC(C)=O)c3C2=O)ccc1OC (single isomer, unassigned; (+)) [Compound A, (+)-2-[1-(3-ethoxy-4-methoxyphenyl)-2-methylsulfonylethyl]-4-acetylaminoisoindoline-1,3-dione], the “PDE Specificity Ratio PDE4/PDE2” value (human PDE2) was over 10000 fold, the emetic episodes (conscious ferret; 10 mg/kg p.o., in 2/6 ferrets) was “some retching but no frank emesis” and the emesis (conscious ferret; 30 mg/kg p.o. (highest dose tested), in 3/4 animals) was “moderate to marked emesis”. The “behavioral changes (flattened posture, lip licking and backward walking), severity” value (conscious ferret; 0.1-3 mg/kg, p.o.) was “mild”, the “emetic episodes (retching and vomiting)” value (conscious ferret; 0.1-3 mg/kg, p.o.) was “no emetic episodes” and the Ataxia (conscious ferret; 0.1 mg/kg) was “None”. The Backward walking (conscious ferret; 0.1 mg/kg) was “Mild (3/5)”, the Flattened posture (conscious ferret; 0.1 mg/kg) was “Mild (2/5)” and the Lip licking (conscious ferret; 0.1 mg/kg) was “Mild (4/5)”. For the same compound, the Mouth clawing (conscious ferret; 0.1 mg/kg) was “None”, the Panting (conscious ferret; 0.1 mg/kg) was “None” and the Retches (conscious ferret; 0.1 mg/kg) was “None”. The Salivation (conscious ferret; 0.1 mg/kg) was “None”, the Vomits (conscious ferret; 0.1 mg/kg) was “None” and the Ataxia (conscious ferret; 0.3 mg/kg) was “None”. The Backward walking (conscious ferret; 0.3 mg/kg) was “Mild (4/6)”, the Flattened posture (conscious ferret; 0.3 mg/kg) was “Mild (2/6)” and the Lip licking (conscious ferret; 0.3 mg/kg) was “Mild (3/6)”. The Mouth clawing (conscious ferret; 0.3 mg/kg) was “None”, the Panting (conscious ferret; 0.3 mg/kg) was “None” and the Retches (conscious ferret; 0.3 mg/kg) was “None”. For the same compound, the Salivation (conscious ferret; 0.3 mg/kg) was “None”, the Vomits (conscious ferret; 0.3 mg/kg) was “None” and the Ataxia (conscious ferret; 1.0 mg/kg) was “None”. The Backward walking (conscious ferret; 1.0 mg/kg) was “Mild (4/6)”, the Flattened posture (conscious ferret; 1.0 mg/kg) was “Mild (2/6)” and the Lip licking (conscious ferret; 1.0 mg/kg) was “Mild (6/6)”. The Mouth clawing (conscious ferret; 1.0 mg/kg) was “None”, the Panting (conscious ferret; 1.0 mg/kg) was “None” and the Retches (conscious ferret; 1.0 mg/kg) was “None”. The Salivation (conscious ferret; 1.0 mg/kg) was “None”, the Vomits (conscious ferret; 1.0 mg/kg) was “None” and the Ataxia (conscious ferret; 3.0 mg/kg) was “None”. The Backward walking (conscious ferret; 3.0 mg/kg) was “Moderate (5/8)”, the Flattened posture (conscious ferret; 3.0 mg/kg) was “Marked (7/8)” and the Lip licking (conscious ferret; 3.0 mg/kg) was “Mild (2/8)”. For the same compound, the Mouth clawing (conscious ferret; 3.0 mg/kg) was “Mild (1/8)”, the Panting (conscious ferret; 3.0 mg/kg) was “None” and the Retches (conscious ferret; 3.0 mg/kg) was “None”. For the same compound, the Salivation (conscious ferret; 3.0 mg/kg) was “None”, the Vomits (conscious ferret; 3.0 mg/kg) was “None” and the Ataxia (conscious ferret; 10 mg/kg) was “None”. For the same compound, the Backward walking (conscious ferret; 10 mg/kg) was “Marked (6/6)”, the Flattened posture (conscious ferret; 10 mg/kg) was “Marked (6/6)” and the Lip licking (conscious ferret; 10 mg/kg) was “Moderate (5/6)”. The Mouth clawing (conscious ferret; 10 mg/kg) was “Mild (1/6)”, the Panting (conscious ferret; 10 mg/kg) was “None” and the Retches (conscious ferret; 10 mg/kg) was “Mild (2/6)”. For the same compound, the Salivation (conscious ferret; 10 mg/kg) was “Mild (1/6)”, the Vomits (conscious ferret; 10 mg/kg) was “None” and the Ataxia (conscious ferret; 30 mg/kg) was “Mild (3/4)”. For the same compound, the Backward walking (conscious ferret; 30 mg/kg) was “Mild (2/4)”, the Flattened posture (conscious ferret; 30 mg/kg) was “Marked (4/4)” and the Lip licking (conscious ferret; 30 mg/kg) was “Moderate (4/4)”. The Mouth clawing (conscious ferret; 30 mg/kg) was “Marked (4/4)”, the Panting (conscious ferret; 30 mg/kg) was “Mild (1/4)” and the Retches (conscious ferret; 30 mg/kg) was “Marked (3/4)”. The Salivation (conscious ferret; 30 mg/kg) was “Moderate (3/4)” and the Vomits (conscious ferret; 30 mg/kg) was “Moderate (3/4)”.
